Assay results from patent US9896479B2, “Functionalized naphthalene fluorophores” (Kay M. Brummond, priority 2012, dated 2018).
Values belong to the molecule of their own block, whether it stands above or below them.

Experiments:
Type in all cases: physicochemical
[1] = Fluorescence emission spectra (emission maxima, Stokes and bathochromic shifts); settings: for Bathochromic shift: across Toluene, CH2Cl2, DMSO (Table 3)
Text: (§1) All commercially available compounds were purchased from Aldrich Chemical Co., GFS Chemicals, Strem Chemicals, Acros Organics, Alfa Aesar, and Advanced Chemtech and used as received, except for p-toluenesulfonyl hydrazide, which was recrystallized from methanol. Amines were purchased from Aldrich Chemical Co. as purified by redistillation and used as received. Tetrahydrofuran (THF), diethyl ether (Et2O), and dichloromethane (CH2Cl2) were purified by passing through alumina using the Sol-Tek ST-002 solvent purification system. Acetonitrile (MeCN) and toluene were freshly distilled from CaH2 prior to use. Benzene was freshly distilled from sodium/benzophenone prior to use Anhydrous N,N-dimethylformamide (DMF), 1,2-dichloroethane (DCE), and 1,4-dioxane were purchased and used as received from Aldrich Chemical Co. Purification of the compounds by flash column chromatography was performed using silica gel (32-63 μm particle size, 60 Å pore size) purchased from Silicycle, or by using a Biotage Horizon flash purification system with either Biotage SNAP KP-SIL silica cartridges, or Teledyne ISCO RediSep Rf normal phase disposable flash columns (40-60 micron). TLC analyses were performed on EMD Chemicals Silica Gel 60 F254 glass plates (250 μm thickness). ^1H NMR and ^13C NMR spectra were recorded on Bruker Avance 300 MHz, 500 MHz, or 600 MHz spectrometers. Spectra were referenced to residual chloroform (7.27 ppm, ^1H, 77.0 ppm, ^13C) or 1,2-dichlorobenzene (6.93 ppm, ^1H, 127.19 ppm, ^13C). Chemical shifts are reported in ppm, multiplicities are indicated by s (singlet), d (doublet), t (triplet), q (quartet), p (pentet), and m (multiplet). Coupling constants, J, are reported in hertz (Hz). All NMR spectra were obtained at room temperature unless otherwise specified. IR spectra were obtained using a Nicolet Avatar E.S.P. 360 FT-IR. EI mass spectroscopy was performed on a Waters Micromass GCT high resolution mass spectrometer. ES mass spectroscopy was performed on a Waters Q-TOF Ultima API, Micromass UK Limited high resolution mass spectrometer. GC mass spectrometry was performed on a Shimadzu GCMS-17A/QP5050A spectrometer. All microwave-mediated reactions were carried out using a Biotage Initiator™ Exp microwave synthesizer. The microwave parameters were set to variable power, constant temperature, with the fixed hold time set to on. The microwave reactions were carried out in 0.2-0.5 mL, 0.5-2 mL, 2-5 mL, or 10-20 mL Biotage microwave vials. […] Absorption and fluorescence spectra were recorded on Lambda 9 spectrophotometer (Perkin Elmer) and FluoroMax-3 spectrofluorometer (Jobin Yvon, Horiba), respectively. Fluorescence quantum yields were determined by taking Prodan in DMSO (quantum yield, QY=91%) as a reference. The quantum yield values were corrected for the solvent refractive index. For spectroscopic measurements, 10^−5 M solutions of dyes in 10 mm quartz-cuvettes were used (excitation wavelength was 334 nm; slits open to 2 nm).

[2] = Absorption spectra (absorption maxima) of dyes in organic solvents
Text: as §1

[3] = Fluorescence quantum yield vs Prodan in DMSO as reference; settings: for QY (fluorescence quantum yield vs Prodan in DMSO (91%)): excitation 334 nm, 10^-5 M
Text: as §1

Molecule: 1-(6-(Dimethylamino)-2,3-dihydro-1H-cyclopenta[b]naphthalen-4-yl)ethanone [Compound 10]
Stokes shift ([1]; in DCM): 207 nm
emission maximum ([1]; in dichloromethane (DCM)): 531 nm
absorption maximum ([2]; in DCM): 324 nm

Molecule: 1-(8-(dimethylamino)-2,3-dihydro-1H-cyclopenta[b]naphthalen-4-yl)ethanone [Compound 12]
absorption and emission maxima compared with fluorophore 102a ([1]; in DCM): comparable to those observed for fluorophore 102a

Molecule: CC(=O)c1c2c(cc3cc(Cl)ccc13)CCC2 [Compound 6d, 1-(7-chloro-2,3-dihydro-1H-cyclopenta[b]naphthalen-4-yl)ethanone]
emission maximum ([1]; in dichloromethane (DCM)): 581 nm

Molecule: CC(=O)c1c2c(cc3ccc(N(C)C)cc13)CCC2 [Compound 10, 1-(6-(Dimethylamino)-2,3-dihydro-1H-cyclopenta[b]naphthalen-4-yl)ethanone]
λem (maximum emission) ([1]; 1,4-Dioxane): 495 nm
λem (maximum emission) ([1]; Acetonitrile): 529 nm
λem (maximum emission) ([1]; CH2Cl2): 510 nm
λem (maximum emission) ([1]; CHCl3): 516 nm
λem (maximum emission) ([1]; Cyclohexane): 466 nm
λem (maximum emission) ([1]; DMSO): 536 nm
λem (maximum emission) ([1]; EtOH): 578 nm
λem (maximum emission) ([1]; THF): 497 nm
λem (maximum emission) ([1]; Toluene): 490 nm
emission maximum ([1]; in methylene chloride): ~510 nm
QY (fluorescence quantum yield vs Prodan in DMSO (91%)) ([3]; 1,4-Dioxane): 46%
QY (fluorescence quantum yield vs Prodan in DMSO (91%)) ([3]; Acetonitrile): 99%
QY (fluorescence quantum yield vs Prodan in DMSO (91%)) ([3]; CH2Cl2): 99%
QY (fluorescence quantum yield vs Prodan in DMSO (91%)) ([3]; CHCl3): 77%
QY (fluorescence quantum yield vs Prodan in DMSO (91%)) ([3]; Cyclohexane): 45%
QY (fluorescence quantum yield vs Prodan in DMSO (91%)) ([3]; DMSO): 85%
QY (fluorescence quantum yield vs Prodan in DMSO (91%)) ([3]; EtOH): 5%
QY (fluorescence quantum yield vs Prodan in DMSO (91%)) ([3]; THF): 75%
QY (fluorescence quantum yield vs Prodan in DMSO (91%)) ([3]; Toluene): 62%
quantum yield ([3]; in dichloroethane): 99%
λabs (maximum absorption) ([2]; 1,4-Dioxane): 376 nm
λabs (maximum absorption) ([2]; Acetonitrile): 375 nm
λabs (maximum absorption) ([2]; CH2Cl2): 377 nm
λabs (maximum absorption) ([2]; CHCl3): 377 nm
λabs (maximum absorption) ([2]; Cyclohexane): 373 nm
λabs (maximum absorption) ([2]; DMSO): 377 nm
λabs (maximum absorption) ([2]; EtOH): 377 nm
λabs (maximum absorption) ([2]; THF): 377 nm
λabs (maximum absorption) ([2]; Toluene): 376 nm
absorption maxima ([2]; dichloroethane): 377 nm
absorption maximum ([2]; in methylene chloride): ~375 nm

Molecule: CC(=O)c1c2c(cc3cc(N(C)C)ccc13)CCC2 [Compound 11, 1-(7-(dimethylamino)-2,3-dihydro-1H-cyclopenta[b]naphthalen-4-yl)ethanone]
λem (maximum emission) ([1]; Acetonitrile): 545 nm
λem (maximum emission) ([1]; CH2Cl2): 509 nm
λem (maximum emission) ([1]; CHCl3): 514 nm
λem (maximum emission) ([1]; Cyclohexane): 445 nm
λem (maximum emission) ([1]; DMSO): 558 nm
λem (maximum emission) ([1]; EtOH): 605 nm
λem (maximum emission) ([1]; THF): 505 nm
λem (maximum emission) ([1]; Toluene): 481 nm
emission maximum ([1]; in methylene chloride): ~510 nm
QY (fluorescence quantum yield vs Prodan in DMSO (91%)) ([3]; Acetonitrile): 18%
QY (fluorescence quantum yield vs Prodan in DMSO (91%)) ([3]; CH2Cl2): 82%
QY (fluorescence quantum yield vs Prodan in DMSO (91%)) ([3]; CHCl3): 41%
QY (fluorescence quantum yield vs Prodan in DMSO (91%)) ([3]; Cyclohexane): 8%
QY (fluorescence quantum yield vs Prodan in DMSO (91%)) ([3]; DMSO): 37%
QY (fluorescence quantum yield vs Prodan in DMSO (91%)) ([3]; EtOH): 3%
QY (fluorescence quantum yield vs Prodan in DMSO (91%)) ([3]; THF): 34%
QY (fluorescence quantum yield vs Prodan in DMSO (91%)) ([3]; Toluene): 25%
λabs (maximum absorption) ([2]; Acetonitrile): 370 nm
λabs (maximum absorption) ([2]; CH2Cl2): 372 nm
λabs (maximum absorption) ([2]; CHCl3): 373 nm
λabs (maximum absorption) ([2]; Cyclohexane): 363 nm
λabs (maximum absorption) ([2]; DMSO): 374 nm
λabs (maximum absorption) ([2]; EtOH): 374 nm
λabs (maximum absorption) ([2]; THF): 370 nm
λabs (maximum absorption) ([2]; Toluene): 368 nm
absorption maximum ([2]; in methylene chloride): ~375 nm

Molecule: CC(=O)c1c2c(cc3c(N(C)C)cccc13)CCC2 [Compound 12, 1-(8-(dimethylamino)-2,3-dihydro-1H-cyclopenta[b]naphthalen-4-yl)ethanone]
λem (maximum emission) ([1]; 1,4-Dioxane): 534 nm
λem (maximum emission) ([1]; Acetonitrile): 590 nm
λem (maximum emission) ([1]; CH2Cl2): 562 nm
λem (maximum emission) ([1]; CHCl3): 562 nm
λem (maximum emission) ([1]; Cyclohexane): 480 nm
λem (maximum emission) ([1]; DMSO): 598 nm
λem (maximum emission) ([1]; EtOH): 634 nm
λem (maximum emission) ([1]; THF): 543 nm
λem (maximum emission) ([1]; Toluene): 520 nm
emission maximum ([1]; in methylene chloride): 562 nm
QY (fluorescence quantum yield vs Prodan in DMSO (91%)) ([3]; 1,4-Dioxane): 44%
QY (fluorescence quantum yield vs Prodan in DMSO (91%)) ([3]; Acetonitrile): 23%
QY (fluorescence quantum yield vs Prodan in DMSO (91%)) ([3]; CH2Cl2): 60%
QY (fluorescence quantum yield vs Prodan in DMSO (91%)) ([3]; CHCl3): 40%
QY (fluorescence quantum yield vs Prodan in DMSO (91%)) ([3]; Cyclohexane): 28%
QY (fluorescence quantum yield vs Prodan in DMSO (91%)) ([3]; DMSO): 48%
QY (fluorescence quantum yield vs Prodan in DMSO (91%)) ([3]; THF): 39%
QY (fluorescence quantum yield vs Prodan in DMSO (91%)) ([3]; Toluene): 47%
λabs (maximum absorption) ([2]; 1,4-Dioxane): 319 nm
λabs (maximum absorption) ([2]; Acetonitrile): 316 nm
λabs (maximum absorption) ([2]; CH2Cl2): 334 nm
λabs (maximum absorption) ([2]; CHCl3): 334 nm
λabs (maximum absorption) ([2]; Cyclohexane): 314 nm
λabs (maximum absorption) ([2]; DMSO): 334 nm
λabs (maximum absorption) ([2]; EtOH): 334 nm
λabs (maximum absorption) ([2]; THF): 330 nm
λabs (maximum absorption) ([2]; Toluene): 322 nm
absorption maximum ([2]; in methylene chloride): 332 nm

Molecule: CC(=O)c1c2c(cc3ccc(N4CCCC4)cc13)CCC2 [Compound 13, 1-(6-(pyrrolidin-1-yl)-2,3-dihydro-1H-cyclopenta[b]naphthalen-4-yl)ethanone]
SS (Stokes shift) ([1]; CH2Cl2 (Table 3)): 243 nm
λem (emission maxima) ([1]; CH2Cl2 (Table 3)): 568 nm
SS (Stokes shift) ([1]; DMSO (Table 3)): 271 nm
λem (emission maxima) ([1]; DMSO (Table 3)): 598 nm
SS (Stokes shift) ([1]; Toluene (Table 3)): 206 nm
λem (emission maxima) ([1]; Toluene (Table 3)): 526 nm
Bathochromic shift [1]: 72 nm
absorption and emission maxima compared with fluorophore 102a ([1]; in DCM): comparable to those observed for fluorophore 102a
λabs (absorption maxima) ([2]; CH2Cl2 (Table 3)): 325 nm
λabs (absorption maxima) ([2]; DMSO (Table 3)): 327 nm
λabs (absorption maxima) ([2]; Toluene (Table 3)): 320 nm

Continued, values first:

emission maximum ([1]; in dichloromethane (DCM)): 567 nm
Molecule: CC(=O)c1c2c(cc3c(N(C)C)cccc13)CC(CO)(CO)C2 [7a]

SS (Stokes shift) ([1]; CH2Cl2 (Table 3)): 210 nm
λem (emission maxima) ([1]; CH2Cl2 (Table 3)): 530 nm
SS (Stokes shift) ([1]; DMSO (Table 3)): 241 nm
λem (emission maxima) ([1]; DMSO (Table 3)): 561 nm
SS (Stokes shift) ([1]; Toluene (Table 3)): 175 nm
λem (emission maxima) ([1]; Toluene (Table 3)): 493 nm
Bathochromic shift [1]: 68 nm
λabs (absorption maxima) ([2]; CH2Cl2 (Table 3)): 320 nm
λabs (absorption maxima) ([2]; DMSO (Table 3)): 320 nm
λabs (absorption maxima) ([2]; Toluene (Table 3)): 318 nm
Molecule: CN(C)c1cccc2c(C(=O)C(C)(C)C)c3c(cc12)CC(CO)(CO)C3 [7b]

SS (Stokes shift) ([1]; CH2Cl2 (Table 3)): 110 nm
λem (emission maxima) ([1]; CH2Cl2 (Table 3)): 537 nm
SS (Stokes shift) ([1]; DMSO (Table 3)): 147 nm
λem (emission maxima) ([1]; DMSO (Table 3)): 574 nm
SS (Stokes shift) ([1]; Toluene (Table 3)): 80 nm
λem (emission maxima) ([1]; Toluene (Table 3)): 504 nm
Bathochromic shift [1]: 70 nm
λabs (absorption maxima) ([2]; CH2Cl2 (Table 3)): 427 nm
λabs (absorption maxima) ([2]; DMSO (Table 3)): 427 nm
λabs (absorption maxima) ([2]; Toluene (Table 3)): 424 nm
Molecule: CN(C)c1ccc2cc3c(c(-c4ccc(CO)cc4)c2c1)C(=O)CC3 [15b]

emission maximum ([1]; in dichloromethane (DCM)): 566 nm
Molecule: CC(=O)c1c2c(cc3ccccc13)CCC2 [Compound 6a, 1-(2,3-Dihydro-1H-cyclopenta[b]naphthalen-4-yl)ethanone]

emission maximum ([1]; in dichloromethane (DCM)): 527 nm
Molecule: CC(=O)c1c2c(cc3ccc(Cl)cc13)CCC2 [Compound 6b, 1-(6-Chloro-2,3-dihydro-1H-cyclopenta[b]naphthalen-4-yl)ethanone]

emission maximum ([1]; in dichloromethane (DCM)): 564 nm
Molecule: CC(=O)c1c2c(cc3c(Cl)cccc13)CCC2 [Compound 6c, 1-(8-Chloro-2,3-dihydro-1H-cyclopenta[b]naphthalen-4-yl)ethanone]
